Reference: patent publication US6355464B1, “M. tuberculosis RNA polymerase alpha subunit” (Anadys Pharmaceuticals, Inc., priority 1996, dated 2002)

Biological target: M. tuberculosis RNA polymerase (Mycobacterium tuberculosis, UniProt P9WGY7+P9WGY9+P9WGZ1)
Assay: In vitro (cell-free) high-throughput transcription screen with reconstituted RNA polymerase and T101 promoter template
Format: biochemical
Conditions: rifampicin at 30 nM; control compound; TCA-precipitated [α-32P]-UTP-labelled RNA, 30 min at 25° C.
Protocol: High-throughput screens for anti-tuberculosis agents may be performed using either an in vitro or in vivo format. In either case, the ability of test compounds to inhibit M. tuberculosis RNA polymerase-driven transcription of M. tuberculosis promoters is tested. Typically, a strong promoter such as T101 is used for the test reactions. The sequence of the T101 promoter is: identified by SEQ. ID. NO. 15 and read as follows.
The following procedure is used for cell-free high-throughput screening. A Tomtec Quadra 96-well pipetting station is used to add the reaction components to polypropylene 96-well dishes. 5 μl aliquots of test compounds dissolved in DMSO (or DMSO alone as a control) are added to wells. This is followed by 20 μl of the RNA polymerase mixture, which consists of: 10 mM DTT, 200 mM KCl, 10 mM Mg^+2, 1.5 μM bovine serum albumin, and 0.25 μg reconstituted RNA polymerase. […]
After incubation for 30 min at 25° C., the reaction is stopped by addition of 150 μl 10% trichloroacetic acid (TCA). […] The wells of the microtiter plate and the filter are washed twice with 5% TCA and bound radioactivity is determined usinjg a Wallac microbeta 1450 scintillation counter. Inhibitory activity due to the test compound is calculated according to the formula: [formula] […]

Chain of M. tuberculosis RNA polymerase (P9WGY7 whole entry, looked up): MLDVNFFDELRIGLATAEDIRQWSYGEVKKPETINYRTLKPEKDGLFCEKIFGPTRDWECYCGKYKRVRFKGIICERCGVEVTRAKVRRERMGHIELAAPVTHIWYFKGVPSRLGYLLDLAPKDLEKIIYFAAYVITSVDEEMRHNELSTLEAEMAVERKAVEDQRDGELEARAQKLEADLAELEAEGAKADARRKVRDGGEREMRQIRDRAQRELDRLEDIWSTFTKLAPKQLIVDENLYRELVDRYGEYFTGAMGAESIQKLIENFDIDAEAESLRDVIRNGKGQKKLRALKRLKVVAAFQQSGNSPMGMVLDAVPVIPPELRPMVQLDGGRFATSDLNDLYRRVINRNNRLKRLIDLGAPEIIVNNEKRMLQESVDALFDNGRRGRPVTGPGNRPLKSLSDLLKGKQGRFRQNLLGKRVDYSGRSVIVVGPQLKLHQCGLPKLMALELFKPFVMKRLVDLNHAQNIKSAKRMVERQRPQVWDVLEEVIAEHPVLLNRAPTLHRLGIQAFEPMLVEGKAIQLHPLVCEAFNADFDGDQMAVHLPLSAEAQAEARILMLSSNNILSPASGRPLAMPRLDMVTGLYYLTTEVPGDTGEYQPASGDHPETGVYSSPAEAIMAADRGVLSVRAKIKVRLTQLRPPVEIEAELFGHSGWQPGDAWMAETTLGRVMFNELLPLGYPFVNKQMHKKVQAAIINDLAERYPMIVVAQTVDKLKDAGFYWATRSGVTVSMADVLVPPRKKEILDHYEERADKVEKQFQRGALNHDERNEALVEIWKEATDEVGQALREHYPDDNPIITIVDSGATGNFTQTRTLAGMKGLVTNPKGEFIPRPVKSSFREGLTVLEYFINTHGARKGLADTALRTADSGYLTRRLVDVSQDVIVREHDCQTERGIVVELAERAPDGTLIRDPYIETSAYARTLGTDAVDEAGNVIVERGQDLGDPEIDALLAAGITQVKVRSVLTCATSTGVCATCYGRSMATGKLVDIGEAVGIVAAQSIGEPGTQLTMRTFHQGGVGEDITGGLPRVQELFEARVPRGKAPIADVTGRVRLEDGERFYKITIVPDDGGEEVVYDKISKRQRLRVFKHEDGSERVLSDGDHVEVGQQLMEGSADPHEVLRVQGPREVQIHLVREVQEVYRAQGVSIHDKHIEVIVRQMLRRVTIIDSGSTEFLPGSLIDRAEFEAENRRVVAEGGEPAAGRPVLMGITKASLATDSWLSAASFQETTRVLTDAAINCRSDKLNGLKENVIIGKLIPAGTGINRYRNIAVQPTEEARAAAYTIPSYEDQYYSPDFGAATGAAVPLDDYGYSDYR
Chain of M. tuberculosis RNA polymerase (P9WGY9 whole entry, looked up): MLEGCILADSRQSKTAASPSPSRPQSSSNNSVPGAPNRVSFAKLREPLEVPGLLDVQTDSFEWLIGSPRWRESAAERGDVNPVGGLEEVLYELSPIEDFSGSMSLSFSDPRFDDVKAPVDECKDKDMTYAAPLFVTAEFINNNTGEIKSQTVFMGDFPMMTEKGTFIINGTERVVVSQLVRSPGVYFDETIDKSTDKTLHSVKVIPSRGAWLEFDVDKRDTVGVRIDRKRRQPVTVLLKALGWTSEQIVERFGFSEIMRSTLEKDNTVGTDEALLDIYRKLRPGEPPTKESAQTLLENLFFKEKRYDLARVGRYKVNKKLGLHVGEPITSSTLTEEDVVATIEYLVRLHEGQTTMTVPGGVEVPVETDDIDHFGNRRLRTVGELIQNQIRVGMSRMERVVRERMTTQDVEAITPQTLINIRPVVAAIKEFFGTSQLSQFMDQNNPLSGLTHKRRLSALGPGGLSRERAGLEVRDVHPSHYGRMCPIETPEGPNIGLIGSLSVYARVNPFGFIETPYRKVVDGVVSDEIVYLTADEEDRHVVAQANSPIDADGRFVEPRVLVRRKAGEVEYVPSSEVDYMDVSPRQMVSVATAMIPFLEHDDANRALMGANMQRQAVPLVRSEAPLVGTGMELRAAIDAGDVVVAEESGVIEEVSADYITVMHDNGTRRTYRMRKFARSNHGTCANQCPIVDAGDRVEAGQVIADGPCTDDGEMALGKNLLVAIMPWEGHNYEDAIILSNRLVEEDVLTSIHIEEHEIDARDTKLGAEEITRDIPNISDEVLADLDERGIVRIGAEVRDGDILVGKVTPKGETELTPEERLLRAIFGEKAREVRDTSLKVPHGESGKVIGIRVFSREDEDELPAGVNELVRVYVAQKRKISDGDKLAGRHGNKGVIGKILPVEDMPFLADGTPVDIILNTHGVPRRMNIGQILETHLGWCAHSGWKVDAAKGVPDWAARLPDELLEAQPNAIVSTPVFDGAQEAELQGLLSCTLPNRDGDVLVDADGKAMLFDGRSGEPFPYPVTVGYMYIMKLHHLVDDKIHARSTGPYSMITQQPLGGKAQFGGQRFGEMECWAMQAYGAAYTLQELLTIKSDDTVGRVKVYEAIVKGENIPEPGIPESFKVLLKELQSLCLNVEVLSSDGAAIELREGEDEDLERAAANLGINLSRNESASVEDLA
Chain of M. tuberculosis RNA polymerase (P9WGZ1 whole entry, looked up): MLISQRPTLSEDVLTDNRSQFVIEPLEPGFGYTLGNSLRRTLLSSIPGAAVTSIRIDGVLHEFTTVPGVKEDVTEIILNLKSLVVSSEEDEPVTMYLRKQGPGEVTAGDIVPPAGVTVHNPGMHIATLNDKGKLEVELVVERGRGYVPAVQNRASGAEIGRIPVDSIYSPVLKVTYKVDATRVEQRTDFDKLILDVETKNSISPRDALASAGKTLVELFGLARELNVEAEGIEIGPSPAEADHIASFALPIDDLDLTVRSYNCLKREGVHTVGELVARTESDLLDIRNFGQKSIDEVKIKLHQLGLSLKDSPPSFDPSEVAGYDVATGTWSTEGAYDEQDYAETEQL

## CO[C@H]1/C=C/O[C@@]2(C)Oc3c(C)c(O)c4c(O)c(c(/C=N/N5CCN(C)CC5)c(O)c4c3C2=O)NC(=O)/C(C)=C\C=C\[C@H](C)[C@H](O)[C@@H](C)[C@@H](O)[C@@H](C)[C@H](OC(C)=O)[C@@H]1C [rifampicin]
  inhibition of transcription: 50-75%
